Patent publication US20090253785A1, “Bactericide composition” (priority 2007, published 2009)

Tests used:
Format in all cases: cell-based
[1] = system: Staphylococcus aureus (S. aureus); assay: Quantitative test of bacterial suspension, S. aureus; details: for Anti-bacteria ratio / Remaining bacteria: S. aureus, incubated 24 hours
Description: (§1) S. aureus, E. coli, MRSA and P. acnes were respectively prepared to form a suspension. The concentration of the suspension was about 1.5×10^8 CFU/ml (density=0.5 McFarland), and then was diluted 100 times (about 1.5×10^6 CFU/ml).
(§2) L-ascorbic acid solutions were prepared respectively in concentrations of 1 wt %, 5 wt %, 10 wt %, 15 wt %, 20 wt %, 25 wt % and 30 wt %. The different concentrations of L-ascorbic acid solutions were used as a test. A hydrochloric acid solution and distilled water were used respectively as a positive control and a negative control, and the pH value of the hydrochloric acid solution was the same of the pH value of the 25 wt % L-ascorbic acid solution.
(§3) 1 ml bacterial suspension was added to a 9 ml L-ascorbic acid solution for testing, and equal amounts of the bacterial suspension were added respectively to the positive control of 9 ml hydrochloric acid solution and the negative control of 9 ml distilled water, and then all solutions were incubated for 24 hours.
(§4) After incubating for 24 hours, all the solutions were series diluted, until diluted 1000 times to form a series of dilution solutions.
(§5) To calculate bacteria remaining in the solutions, 0.2 ml of each series of dilution solutions were cultured respectively on Petri dishes and repeated twice.
(§6) Each Petri dish was cultured in an incubator at 35±2° C. for 1˜2 days (S. aureus, E. coli) or for 2˜4 days (MRSA and P. acnes) to observe bacteria growth on Petri dish and the bacteria were counted.
(§7) Anti-bacterial ratio (%)=[(remaining bacteria of controls−remaining bacteria of test)/remaining bacteria of controls]×100%

[2] = system: Escherichia coli (E. coli); assay: Quantitative test of bacterial suspension, E. coli; details: for Anti-bacteria ratio / Remaining bacteria: E. coli, incubated 24 hours
Description: as §1, §2, §3, §4, §5, §6, §7

[3] = system: Propionibacterium acnes (P. acnes); assay: Quantitative test of bacterial suspension, P. acnes; details: for Anti-bacteria ratio / Remaining bacteria: P. acnes, incubated 24 hours
Description: as §1, §2, §3, §4, §5, §6, §7

[4] = system: Methicillin-resistant Staphylococcus aureus (MRSA); assay: Quantitative test of bacterial suspension, MRSA; details: for Anti-bacteria ratio / Remaining bacteria: MRSA, incubated 24 hours
Description: as §1, §2, §3, §4, §5, §6, §7

[5] = positive control solution, pH 1.68
[6] = 1 wt % to 30 wt % solution, incubating for 24 hours

Cl [Hydrochloric acid, reference compound]
Anti-bacteria ratio [1, 5]: 99.99%
Remaining bacteria [1, 5]: 18 CFU/mL
Anti-bacteria ratio [2, 5]: 100%
Remaining bacteria [2, 5]: 0 CFU/mL

O=C1O[C@H]([C@@H](O)CO)C(O)=C1O [L-ascorbic acid]
remaining P. acnes found in the Petri dishes [3, 6]: no remaining
Anti-bacteria ratio ([3]; 1% solution, pH 2.70): 100%
Remaining bacteria ([3]; 1% solution, pH 2.70): 0 CFU/mL
Anti-bacteria ratio ([3]; 5% solution, pH 2.28): 100%
Remaining bacteria ([3]; 5% solution, pH 2.28): 0 CFU/mL
Anti-bacteria ratio ([3]; 10% solution, pH 2.05): 100%
Remaining bacteria ([3]; 10% solution, pH 2.05): 0 CFU/mL
Anti-bacteria ratio ([3]; 15% solution, pH 1.93): 100%
Remaining bacteria ([3]; 15% solution, pH 1.93): 0 CFU/mL
Anti-bacteria ratio ([3]; 20% solution, pH 1.80): 100%
Remaining bacteria ([3]; 20% solution, pH 1.80): 0 CFU/mL
Anti-bacteria ratio ([3]; 25% solution, pH 1.68): 100%
Remaining bacteria ([3]; 25% solution, pH 1.68): 0 CFU/mL
Anti-bacteria ratio ([3]; 30% solution, pH 1.59): 100%
Remaining bacteria ([3]; 30% solution, pH 1.59): 0 CFU/mL
remaining S. aureus found ([1]; 15 wt % to 30 wt % solution, incubating for 24 hours): no remaining
Anti-bacteria ratio ([1]; 1% solution, pH 2.70): 99.72%
Remaining bacteria ([1]; 1% solution, pH 2.70): 2.5 × 10^4 CFU/mL
Anti-bacteria ratio ([1]; 5% solution, pH 2.28): 99.97%
Remaining bacteria ([1]; 5% solution, pH 2.28): 3.0 × 10^3 CFU/mL
Anti-bacteria ratio ([1]; 10% solution, pH 2.05): 99.99%
Remaining bacteria ([1]; 10% solution, pH 2.05): 2.0 × 10^2 CFU/mL
Anti-bacteria ratio ([1]; 15% solution, pH 1.93): 100%
Remaining bacteria ([1]; 15% solution, pH 1.93): 0 CFU/mL
Anti-bacteria ratio ([1]; 20% solution, pH 1.80): 100%
Remaining bacteria ([1]; 20% solution, pH 1.80): 0 CFU/mL
Anti-bacteria ratio ([1]; 25% solution, pH 1.68): 100%
Remaining bacteria ([1]; 25% solution, pH 1.68): 0 CFU/mL
Anti-bacteria ratio ([1]; 30% solution, pH 1.59): 100%
Remaining bacteria ([1]; 30% solution, pH 1.59): 0 CFU/mL
remaining MRSA found ([4]; 5 wt % to 30 wt % solution, incubating for 24 hours): no remaining
Anti-bacteria ratio ([4]; 1% solution, pH 2.70): 99.99%
Remaining bacteria ([4]; 1% solution, pH 2.70): 2.0 × 10^3 CFU/mL
Anti-bacteria ratio ([4]; 5% solution, pH 2.28): 100%
Remaining bacteria ([4]; 5% solution, pH 2.28): 0 CFU/mL
Anti-bacteria ratio ([4]; 10% solution, pH 2.05): 100%
Remaining bacteria ([4]; 10% solution, pH 2.05): 0 CFU/mL
Anti-bacteria ratio ([4]; 15% solution, pH 1.93): 100%
Remaining bacteria ([4]; 15% solution, pH 1.93): 0 CFU/mL
Anti-bacteria ratio ([4]; 20% solution, pH 1.80): 100%
Remaining bacteria ([4]; 20% solution, pH 1.80): 0 CFU/mL
Anti-bacteria ratio ([4]; 25% solution, pH 1.68): 100%
Remaining bacteria ([4]; 25% solution, pH 1.68): 0 CFU/mL
Anti-bacteria ratio ([4]; 30% solution, pH 1.59): 100%
Remaining bacteria ([4]; 30% solution, pH 1.59): 0 CFU/mL
remaining E. coli found in the Petri dishes [2, 6]: no remaining
Anti-bacteria ratio ([2]; 1% solution, pH 2.70): 100%
Remaining bacteria ([2]; 1% solution, pH 2.70): 0 CFU/mL
Anti-bacteria ratio ([2]; 5% solution, pH 2.28): 100%
Remaining bacteria ([2]; 5% solution, pH 2.28): 0 CFU/mL
Anti-bacteria ratio ([2]; 10% solution, pH 2.05): 100%
Remaining bacteria ([2]; 10% solution, pH 2.05): 0 CFU/mL
Anti-bacteria ratio ([2]; 15% solution, pH 1.93): 100%
Remaining bacteria ([2]; 15% solution, pH 1.93): 0 CFU/mL
Anti-bacteria ratio ([2]; 20% solution, pH 1.80): 100%
Remaining bacteria ([2]; 20% solution, pH 1.80): 0 CFU/mL
Anti-bacteria ratio ([2]; 25% solution, pH 1.68): 100%
Remaining bacteria ([2]; 25% solution, pH 1.68): 0 CFU/mL
Anti-bacteria ratio ([2]; 30% solution, pH 1.59): 100%
Remaining bacteria ([2]; 30% solution, pH 1.59): 0 CFU/mL
